These results are taken from patent publication US12569473B2, “Methods to treat respiratory infection utilizing castanospermine analogs” (60 Degrees Pharmaceuticals, Inc., priority 2022, dated 2026).

Data set [1] in a line: Cytotoxicity, neutral red assay, MA-104 cells. The class given is cell-based. To be noted: African green monkey, MA-104 cells (embryonic African green monkey kidney), compounds tested at 0.3, 3, 30 and 300 microM, unit inferred. The protocol: (§1) The efficacy of celgosivir and castanospermine against RSV and human rhinovirus-14 was assessed in vitro. For RSV studies, embryonic African green monkey kidney cells (MA-104) were grown in minimal essential medium (MEM) supplemented with 0.1% NaHCO3 and 10% fetal bovine serum. When performing antiviral assays, serum was reduced to 2% and […] gentamicin was added to the medium. RSV strain A2 was used for the studies. For rhinovirus studies, the HeLa Ohio cell line was used in place of MA-104 cells.
(§2) CPE inhibition assays with visual quantification of antiviral activity and cytotoxicity were performed as described by Sidwell and Huffman (1971) with slight modifications. Sidwell, R. W. and Huffman, J. H. (1971) Use of disposable micro-tissue culture plates for antiviral and interferon induction studies. Appl. Microbiol. 22, […]. […] All compounds were assayed for virus inhibition in quadruplicate and for cytotoxicity in duplicate. For rhinovirus studies, Pirodavir was applied at a concentration of 0.001-1 μg/ml as the positive control compound. For RSV studies, the positive control compound was Ribavirin applied at a concentration of 0.5-500 μg/ml. For each compound, two wells were set aside as uninfected, untreated cell controls per test and four wells per test received virus only and represented controls for virus replication. […] A selective index (S.I.) was calculated for each compound (SI.=(IC50)/(EC50)).
(§3) Neutral red assay of CPE inhibition and cytotoxicity was performed by a modified method as described by Cavenaugh et al. (1990). […] Briefly, medium was removed from each well of a plate scored for CPE from the visual CPE inhibition assay, 0.2 ml of neutral red (0.034% in PSS) was added to each of the wells of that plate and the plate incubated for 2 h at 37° C. in the dark. […] Absorbances at 540 and 450 nm were read with a microplate reader (Bio-Tek EL 1309; Bio-Tek Instruments). […] Absorbance values were expressed as percentages of untreated controls and EC50 and IC50 values were calculated by regression analysis

Data set [2] is described as follows: Pharmacokinetic simulations using CELADEN study parameters. Details: species or system human. Conditions: linear extrapolation. The protocol: It is known that a steady state minimum castanospermine concentration of 400 nanograms/ml is associated with a 50 mg/kg BID dose in mice and that the antiviral effect of celgosivir in vivo seems to be correlated with the minimum steady state concentration of castanospermine (Watanabe et al). […] International Publication No. WO 2014/143907 discloses pharmacokinetic parameters for castanospermine for the CELADEN study. […] Extrapolating linearly, therefore, the minimum protective dose (achieving 400 nanograms/ml steady state minimum) is approximately 40 mg every 6 h, 75 mg every 8 h and 225 mg every 12 h. Further, WO 2014/143907 discloses that the CELADEN study regimen produce a steady state maximum castanospermine concentration of 5100 nanograms/ml. […] The FDA has published generic scaling factors to adjust mg/kg dosing in animals to mg/kg dosing in humans. Generically for mice, that scaling factor is 12. Therefore, 50 mg/kg BID is equivalent to a dose of 4.2 mg/kg BID in humans, which for a 60 kg human is equivalent to 250 mg. The same dose administered three or four times daily is equivalent to 167 mg and 125 mg and 2.8 and 2.1 mg/kg respectively. In a 60 kg human, the maximum single dose is 6.7 mg/kg, and the maximum daily dose is 10 mg/kg.

The nature of data set [3]: Cytotoxicity, visual examination, MA-104 cells. The class given is cell-based, African green monkey. Conditions: African green monkey, MA-104 cells (embryonic African green monkey kidney), unit inferred, read-out: CC50. As for the experimental part: as §1
(§4) CPE inhibition assays with visual quantification of antiviral activity and cytotoxicity were performed as described by Sidwell and Huffman (1971) with slight modifications. Sidwell, R. W. and Huffman, J. H. (1971) Use of disposable micro-tissue culture plates for antiviral and interferon induction studies. Appl. Microbiol. 22, […]. […] All compounds were assayed for virus inhibition in quadruplicate and for cytotoxicity in duplicate. For rhinovirus studies, Pirodavir was applied at a concentration of 0.001-1 μg/ml as the positive control compound. For RSV studies, the positive control compound was Ribavirin applied at a concentration of 0.5-500 μg/ml. For each compound, two wells were set aside as uninfected, untreated cell controls per test and four wells per test received virus only and represented controls for virus replication. […] For all CPE-based assays, the 50% effective concentration (EC50) was calculated by regression analysis using the means of the CPE ratings at each concentration of compound. Morphological changes due to compound cytotoxicity were graded on a scale of 0-5; grade 5 was defined as 100% cytotoxicity. The 50% cytotoxic dose (IC50) was calculated by regression analysis. A selective index (S.I.) was calculated for each compound (SI.=(IC50)/(EC50)).

For data set [4], the system named is embryonic African green monkey kidney cells (MA-104). Nature of the data set: Cytotoxicity, visual examination, MA-104 cells. Format: cell-based. Conditions: all concentrations tested (0.3-300 microM); text summary of the cytotoxicity assays. As for the experimental part:
as §1, §4

Data set [5] has as its system human rhinovirus-14. Nature of the data set: Neutral red assay of CPE inhibition, human rhinovirus-14. Conditions: HeLa Ohio cells, compounds tested at 0.3, 3, 30 and 300 microM, unit inferred. The class given is cell-based. As for the experimental part:
as §1, §2, §3

For a further data set, the system named is RSV strain A2. Put plainly: Neutral red assay of CPE inhibition, RSV. Format: cell-based. Conditions: human respiratory syncytial virus, MA104, MA-104 cells, compounds tested at 0.3, 3, 30 and 300 microM, unit inferred. As for the experimental part: as §1, §2, §3
The conditions of data set [6]: cited from earlier work.
Data set [7] in a line: Cytotoxicity, visual examination, HeLa Ohio cells. The class given is cell-based. To be noted: human, compounds tested at 0.3, 3, 30 and 300 microM, unit inferred. The protocol:
as §1, §4

The test system of data set [8] is human rhinovirus-14. Nature of the data set: CPE inhibition assay, visual examination, human rhinovirus-14. The class given is cell-based. As for the experimental part:
as §1, §4

The mark [9] stands for this setting: in theory, CELADEN study, confirming literature.

Where a name gives a salt, the structure may show the parent alone.

As a reminder, the CC50 is the concentration giving 50% cytotoxicity. The EC50 is the midpoint of the concentration-response curve. On to `CCCC(=O)O[C@H]1CN2CC[C@H](O)[C@@H]2[C@@H](O)[C@@H]1O` [Celgosivir HCL], for which the half-maximal cytotoxic concentration (CC50) at 6 days was over 300 µM in data set [1]; at least 300 µM in data set [3] (RSV studies, text summary over visual and neutral red assays); over 300 µM in [3] (visual examination, MA-104 cells, compounds tested at 0.3, 3, 30 and 300 microM); over 300 µM in data set [7]. In addition, the “minimum protective dose (achieving 400 nanograms/ml steady state minimum)” value is “approximately 40 mg” in data set [2] (every 6 h), about 75 mg in data set [2] (every 8 h) and about 225 mg in [2] (every 12 h). In addition, the “safety in vitro (CC50 above the highest concentration tested)” value in [4] is recorded as “safe at all concentrations tested”. Also, the EC50 in the data set with human rhinovirus-14 [5] was over 300 µM; with RSV strain A2, 34 µM; in the data set with human rhinovirus-14 [8] (visual examination, HeLa Ohio cells, compounds tested at 0.3, 3, 30 and 300 microM, unit inferred), over 300 µM. The adverse event profile result in data set [6] (CELADEN study regimen) was “higher incidence of GI effects, but not increased severity”. In addition, the “maximum daily dose as a total dose” value in [6] (setting [9]) is listed as at most 600 mg. Further, the “maximum dose as a single dose” value in data set [6] (setting [9]) is listed as at most 400 mg. The “efficacy against human rhinovirus-14” value in the data set on human rhinovirus-14 [8] (at the concentrations tested (0.3-300 microM)) is “Neither celgosivir nor castanospermine were determined to be efficacious”.
